Laboratory results as given in US10758534B2 (Vertex Pharmaceuticals Incorporated, priority 2014, dated 2020).

Molecular target: T1, F508del (Homo sapiens, UniProt P13569, DEL508-508)
T1 construct: expressed in transfected cells
Experiment: Protocol 2: FRET membrane potential optical assay (VIPR), identification of correction compounds
Type: cell-based
Settings: F508del CFTR modulator activity; compounds of Table 1; read-out: EC30
Method in brief: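 FRET read-out (CC2-DMPE donor, DiSBAC2(3) voltage-sensitive acceptor) of membrane depolarization on VIPR II. Corrector candidates incubated 16 hrs at 37° C. with NIH3T3 cells expressing F508del; temperature correction at 27° C. as positive control; stimulation by 10 μM forskolin, 20 μM genistein, chloride-free gluconate bath.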

T1 sequence (P13569 with tags, fused parts or gaps DEL508-508): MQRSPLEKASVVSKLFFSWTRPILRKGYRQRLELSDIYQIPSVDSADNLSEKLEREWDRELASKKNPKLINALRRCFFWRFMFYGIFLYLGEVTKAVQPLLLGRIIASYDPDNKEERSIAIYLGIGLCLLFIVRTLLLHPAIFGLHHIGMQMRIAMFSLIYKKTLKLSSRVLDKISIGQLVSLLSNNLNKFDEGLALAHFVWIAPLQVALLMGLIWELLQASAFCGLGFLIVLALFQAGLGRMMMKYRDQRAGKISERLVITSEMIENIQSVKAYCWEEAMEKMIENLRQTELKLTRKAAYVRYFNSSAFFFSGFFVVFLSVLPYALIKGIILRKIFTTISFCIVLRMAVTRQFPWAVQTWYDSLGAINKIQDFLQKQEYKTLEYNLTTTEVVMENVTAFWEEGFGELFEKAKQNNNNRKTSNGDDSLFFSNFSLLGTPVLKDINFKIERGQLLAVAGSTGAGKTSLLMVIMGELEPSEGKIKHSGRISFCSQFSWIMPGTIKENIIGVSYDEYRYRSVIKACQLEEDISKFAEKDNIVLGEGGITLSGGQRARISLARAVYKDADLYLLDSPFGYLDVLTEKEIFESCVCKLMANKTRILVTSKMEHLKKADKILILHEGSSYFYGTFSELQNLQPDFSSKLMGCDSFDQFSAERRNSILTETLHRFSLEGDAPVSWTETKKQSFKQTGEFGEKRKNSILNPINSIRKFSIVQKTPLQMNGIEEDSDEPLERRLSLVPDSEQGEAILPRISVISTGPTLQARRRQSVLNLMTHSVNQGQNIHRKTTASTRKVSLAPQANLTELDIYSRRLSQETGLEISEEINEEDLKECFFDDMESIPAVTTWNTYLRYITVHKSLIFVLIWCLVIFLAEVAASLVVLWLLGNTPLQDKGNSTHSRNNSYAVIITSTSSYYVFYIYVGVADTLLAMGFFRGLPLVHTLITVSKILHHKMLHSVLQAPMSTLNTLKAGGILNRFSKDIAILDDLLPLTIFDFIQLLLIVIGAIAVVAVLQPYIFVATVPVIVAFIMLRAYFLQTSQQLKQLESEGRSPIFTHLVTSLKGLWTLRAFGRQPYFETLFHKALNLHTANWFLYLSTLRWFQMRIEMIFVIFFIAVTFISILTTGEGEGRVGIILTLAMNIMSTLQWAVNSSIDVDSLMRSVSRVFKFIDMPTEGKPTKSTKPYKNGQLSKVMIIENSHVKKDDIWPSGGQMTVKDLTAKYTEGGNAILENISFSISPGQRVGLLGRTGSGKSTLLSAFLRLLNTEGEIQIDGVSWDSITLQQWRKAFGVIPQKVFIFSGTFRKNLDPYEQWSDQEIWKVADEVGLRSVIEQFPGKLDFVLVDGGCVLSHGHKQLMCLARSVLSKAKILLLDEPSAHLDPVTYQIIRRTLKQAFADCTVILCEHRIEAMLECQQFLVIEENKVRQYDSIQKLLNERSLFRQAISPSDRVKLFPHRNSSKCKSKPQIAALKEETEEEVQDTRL

Row | Compound | EC30 [nM]
1 | CC1CN(c2ncccc2C(=O)NS(=O)(=O)c2cccc(NCCN(C)C(=O)OC(C)(C)C)n2)C(C)(C)C1 (stereo not drawn) [Compound 2400, tert-butyl N-methyl-N—[2-[[6-[[2-(2,2,4-trimethylpyrrolidin-1-yl)pyridine-3-carbonyl]sulfamoyl]-2-pyridyl]amino]ethyl]carbamate] | 3000 to 10000
2 | C[C@@H]1CN(c2nc(-c3ccc4ccn(C)c4c3)ccc2C(=O)NS(=O)(=O)c2cccnc2N)C(C)(C)C1 [Compound 2401, N-[(2-amino-3-pyridyl)sulfonyl]-6-(I-methylindol-6-yl)-2-[(4S)-2,2,4-trimethylpyrrolidin-1-yl]pyridine-3-carboxamide] | < 3000
3 | CC1CN(c2ncccc2C(=O)NS(=O)(=O)c2cccc(OCc3ccc(Cl)c(Cl)c3)n2)C(C)(C)C1 (stereo not drawn) [Compound 2402, N—[[6-[(3,4-dichlorophenyl)methoxy]-2-pyridyl]sulfonyl]-2-(2,2,4-trimethylpyrrolidin-1-yl)pyridine-3-carboxamide] | < 3000
4 | CCOc1ccc(-c2ccc(C(=O)NS(=O)(=O)c3cccnc3N)c(N3C[C@@H](C)CC3(C)C)n2)cc1F [Compound 2403, N-[(2-amino-3-pyridyl)sulfonyl]-6-(4-ethoxy-3-fluoro-phenyl)-2-[(4S)-2,2,4-trimethylpyrrolidin-1-yl]pyridine-3-carboxamide] | < 3000
5 | CCOCCOc1ncc(-c2ccc(C(=O)NS(=O)(=O)c3cccc(N)n3)c(N3C[C@@H](C)CC3(C)C)n2)cc1C [Compound 2404, N-[(6-amino-2-pyridyl)sulfonyl]-6-[6-(2-ethoxyethoxy)-5-methyl-3-pyridyl]-2-[(4S)-2,2,4-trimethylpyrrolidin-1-yl]pyridine-3-carboxamide] | < 3000
6 | C[C@@H]1CN(c2nc3ccccc3cc2C(=O)NS(=O)(=O)c2ccc[nH]c2=O)C(C)(C)C1 [Compound 2405, N-[(2-oxo-1H-pyridin-3-yl)sulfonyl]-2-[(4S)-2,2,4-trimethylpyrrolidin-1-yl]quinoline-3-carboxamide] | < 3000
7 | C[C@@H]1CN(c2nc(-n3cc(OCC(C)(C)C)cn3)ccc2C(=O)NS(=O)(=O)c2cccnc2N)C(C)(C)C1 [Compound 2406, N-[(2-amino-3-pyridyl)sulfonyl]-6-[4-(2,2-dimethylpropoxy)pyrazol-1-yl]-2-[(4S)-2,2,4-trimethylpyrrolidin-1-yl]pyridine-3-carboxamide] | < 3000
8 | CC1CN(c2ncccc2C(=O)NS(=O)(=O)c2cccc(NC3CCN(Cc4ccccc4)C3)n2)C(C)(C)C1 (stereo not drawn) [Compound 2407, N—[[6-[(1-benzylpyrrolidin-3-yl)amino]-2-pyridyl]sulfonyl]-2-(2,2,4-trimethylpyrrolidin-1-yl)pyridine-3-carboxamide] | 3000 to 10000
9 | CC1CN(c2ncccc2C(=O)NS(=O)(=O)c2cccc(OC(C)c3ccccc3F)n2)C(C)(C)C1 (stereo not drawn) [Compound 2408, N—[[6-[1-(2-fluorophenyl)ethoxy]-2-pyridyl]sulfonyl]-2-(2,2,4-trimethylpyrrolidin-1-yl)pyridine-3-carboxamide] | < 3000
10 | CC1CN(c2ncccc2C(=O)NS(=O)(=O)c2cccc(OCc3cccc(F)c3)n2)C(C)(C)C1 (stereo not drawn) [Compound 2409, N—[[6-[(3-fluorophenyl)methoxy]-2-pyridyl]sulfonyl]-2-(2,2,4-trimethylpyrrolidin-1-yl)pyridine-3-carboxamide] | < 3000
11 | CCOc1ccc(C)cc1-c1ccc(C(=O)NS(=O)(=O)c2ccc[nH]c2=O)c(N2C[C@@H](C)CC2(C)C)n1 [Compound 2410, 6-(2-ethoxy-5-methyl-phenyl)-N-[(2-oxo-1H-pyridin-3-yl)sulfonyl]-2-[(4S)-2,2,4-trimethylpyrrolidin-1-yl]pyridine-3-carboxamide] | < 3000
12 | COc1cccc(-c2ccc(C(=O)NS(=O)(=O)c3ccccc3)c(N3C[C@@H](C)CC3(C)C)n2)n1 [Compound 2411, N-(benzenesulfonyl)-6-(6-methoxy-2-pyridyl)-2-[(4S)-2,2,4-trimethylpyrrolidin-1-yl]pyridine-3-carboxamide] | < 3000
13 | CC1CN(c2ncccc2C(=O)NS(=O)(=O)c2cccc(OCC(C)(C)C)n2)C(C)(C)C1 (stereo not drawn) [Compound 2412, N—[[6-(2,2-dimethylpropoxy)-2-pyridyl]sulfonyl]-2-(2,2,4-trimethylpyrrolidin-1-yl)pyridine-3-carboxamide] | < 3000
14 | COc1ccc(C)cc1-c1ccc(C(=O)NS(=O)(=O)c2cccnc2N)c(N2C[C@@H](C)CC2(C)C)n1 [Compound 2413, N-[(2-amino-3-pyridyl)sulfonyl]-6-(2-methoxy-5-methyl-phenyl)-2-[(4S)-2,2,4-trimethylpyrrolidin-1-yl]pyridine-3-carboxamide] | < 3000
15 | C[C@@H]1CN(c2nc(-c3cccc(F)c3)ccc2C(=O)NS(=O)(=O)N2CC[C@H](N)C2)C(C)(C)C1 [Compound 2414, N-[(3S)-3-aminopyrrolidin-1-yl]sulfonyl-6-(3-fluorophenyl)-2-[(4S)-2,2,4-trimethylpyrrolidin-1-yl]pyridine-3-carboxamide] | 3000 to 10000
16 | CC1CN(c2ncccc2C(=O)NS(=O)(=O)c2cccc(OCc3ccc(C(C)C)cc3)n2)C(C)(C)C1 (stereo not drawn) [Compound 2415, N—[[6-[(4-isopropylphenyl)methoxy]-2-pyridyl]sulfonyl]-2-(2,2,4-trimethylpyrrolidin-1-yl)pyridine-3-carboxamide] | < 3000
17 | C[C@@H]1CN(c2nc(-c3cc(C(F)(F)F)nn3C)ccc2C(=O)NS(=O)(=O)c2cccnc2N)C(C)(C)C1 [Compound 2416, N-[(2-amino-3-pyridyl)sulfonyl]-6-[2-methyl-5-(trifluoromethyl)pyrazol-3-yl]-2-[(4S)-2,2,4-trimethylpyrrolidin-1-yl]pyridine-3-carboxamide] | < 3000
18 | CC(C)COc1cc(F)cc(-c2ccc(C(=O)NS(=O)(=O)N3CC[C@@H](O)C3)c(N3C[C@@H](C)CC3(C)C)n2)c1 [Compound 2427, 6-(3-fluoro-5-isobutoxy-phenyl)-N-[(3R)-3-hydroxypyrrolidin-1-yl]sulfonyl-2-[(4S)-2,2,4-trimethylpyrrolidin-1-yl]pyridine-3-carboxamide] | < 3000

Second part, the compound after the results:

Row | EC30 [nM] | Compound
19 | < 3000 | C[C@@H]1CN(c2nc(C(C)(C)C)c(C3=CCN(C(=O)Cc4ccccc4)CC3)cc2C(=O)NS(=O)(=O)c2cccc(N)n2)C(C)(C)C1 [Compound 2417, N-[(6-amino-2-pyridyl)sulfonyl]-6-tert-butyl-5-[1-(2-phenylacetyl)-3,6-dihydro-2H-pyridin-4-yl]-2-[(4S)-2,2,4-trimethylpyrrolidin-1-yl]pyridine-3-carboxamide]
20 | < 3000 | C[C@@H]1CN(c2nc(-c3cncc4ccccc34)ccc2C(=O)NS(=O)(=O)c2cccnc2N)C(C)(C)C1 [Compound 2418, N-[(2-amino-3-pyridyl)sulfonyl]-6-(4-isoquinolyl)-2-[(4S)-2,2,4-trimethylpyrrolidin-1-yl]pyridine-3-carboxamide]
21 | 3000 to 10000 | COc1ccc2nc(N3C[C@@H](C)CC3(C)C)c(C(=O)NS(=O)(=O)c3ccc[nH]c3=O)cc2c1 [Compound 2419, 6-methoxy-N-[(2-oxo-1H-pyridin-3-yl)sulfonyl]-2-[(4S)-2,2,4-trimethylpyrrolidin-1-yl]quinoline-3-carboxamide]
22 | 3000 to 10000 | COc1cccc(Nc2cccc(S(=O)(=O)NC(=O)c3cccnc3N3CC(C)CC3(C)C)n2)n1 (stereo not drawn) [Compound 2420, N—[[6-[(6-methoxy-2-pyridyl)amino]-2-pyridyl]sulfonyl]-2-(2,2,4-trimethylpyrrolidin-1-yl)pyridine-3-carboxamide]
23 | < 3000 | CC1CN(c2ncccc2C(=O)NS(=O)(=O)c2cccc(NCc3cc(F)cc(F)c3)n2)C(C)(C)C1 (stereo not drawn) [Compound 2421, N—[[6-[(3,5-difluorophenyl)methylamino]-2-pyridyl]sulfonyl]-2-(2,2,4-trimethylpyrrolidin-1-yl)pyridine-3-carboxamide]
24 | 3000 to 10000 | COc1cccc(F)c1-c1ccc(C(=O)NS(=O)(=O)c2ccc[nH]c2=O)c(N2C[C@@H](C)CC2(C)C)n1 [Compound 2422, 6-(2-fluoro-6-methoxy-phenyl)-N-[(2-oxo-1H-pyridin-3-yl)sulfonyl]-2-[(4S)-2,2,4-trimethylpyrrolidin-1-yl]pyridine-3-carboxamide]
25 | < 3000 | CCCCCCN1CCN(c2cccc(S(=O)(=O)NC(=O)c3cccnc3N3CC(C)CC3(C)C)n2)CC1 (stereo not drawn) [Compound 2423, N—[[6-(4-hexylpiperazin-1-yl)-2-pyridyl]sulfonyl]-2-(2,2,4-trimethylpyrrolidin-1-yl)pyridine-3-carboxamide]
26 | < 3000 | Cc1cccc(-c2ccc(C(=O)NS(=O)(=O)c3ccc[nH]c3=O)c(N3C[C@@H](C)CC3(C)C)n2)c1 [Compound 2424, 6-(m-tolyl)-N-[(2-oxo-1H-pyridin-3-yl)sulfonyl]-2-[(4S)-2,2,4-trimethylpyrrolidin-1-yl]pyridine-3-carboxamide]
27 | < 3000 | Cc1ccc(O)c(-c2ccc(C(=O)NS(=O)(=O)c3cccnc3N)c(N3C[C@@H](C)CC3(C)C)n2)c1 [Compound 2426, N-[(2-amino-3-pyridyl)sulfonyl]-6-(2-hydroxy-5-methyl-phenyl)-2-[(4S)-2,2,4-trimethylpyrrolidin-1-yl]pyridine-3-carboxamide]
28 | < 3000 | COc1ccc(COc2cccc(S(=O)(=O)NC(=O)c3cccnc3N3CC(C)CC3(C)C)n2)cc1 (stereo not drawn) [Compound 2428, N—[[6-[(4-methoxyphenyl)methoxy]-2-pyridyl]sulfonyl]-2-(2,2,4-trimethylpyrrolidin-1-yl)pyridine-3-carboxamide]
29 | < 3000 | CC1CN(c2ncc(-c3cccc(Cl)c3)cc2C(=O)NS(=O)(=O)c2cccc(N)n2)C(C)(C)C1 (stereo not drawn) [Compound 2429, N-[(6-amino-2-pyridyl)sulfonyl]-5-(3-chlorophenyl)-2-(2,2,4-trimethylpyrrolidin-1-yl)pyridine-3-carboxamide]
30 | 3000 to 10000 | COc1cccc(S(=O)(=O)NC(=O)c2cccnc2N2CC(C)CC2(C)C)n1 (stereo not drawn) [Compound 2430]
